Assay results taken from patent publication US10390536B2, “Methods, compounds and compositions for repelling insects and/or arachnids” (National Center for Scientific Research “Demokritos”, priority 2013, dated 2019).

Columns and labels:
Assay type in all cases: in vivo
[1] = tested on: Culex spp.; assay: experimental hut field trial of spatial repellence, Culex; conditions: single compound, 1 ml in open vial in MM-X trap, per night
Description: (§1) To test the effects of repellent compounds or compositions disclosed herein on mosquitoes in a controlled environment resembling actual living quarters and conditions, field trials with standardized experimental huts were conducted at Kainji Dam in North Central Nigeria.
(§2) Six such huts were built in a straight line, and the distance between huts was 11 meters. These huts follow a traditional square design, the walls are built with concrete blocks that are subsequently plastered with cement, each wall has a window. The ceiling is plywood and the roof is thatched with eaves that are open, thereby allowing free flow of air into and out of the hut, and thus entry and exit of mosquitoes. There is a door for entry and exit. Two opposing sides of each hut have window exit traps and screened verandas to capture mosquitoes leaving via the windows or eaves. Each hut is raised off the ground on a concrete platform and surrounded by a moat filled with water in order to prevent ants from entering. Each hut is fitted with a mattress and an untreated bed net for sleepers. These huts are similar in design and concept to those used previously elsewhere for studying mosquito behavior and measuring the efficacy of various mosquito control products or intervention methods in Tanzania and Gambia. For design parameters refer to WHOPES 2005. The huts are adjacent to a tributary of the River Niger at a distance of 10 km from the Kainji Dam site and face rice fields known to harbor permanent mosquito breeding sites. The mosquitoes endemic to this area of Nigeria are highly endophillic, that is, they rest mainly indoors.
(§3) Human volunteers that participated as sleepers in this field trial were provided with anti-malarial chemical prophylaxis on a weekly basis, and the protocols used herein were reviewed and approved by the Research Ethics Review Committee of the Nigerian Institute of Medical Research. Six male adult volunteers, aged between 25 and 35 years old, were recruited to sleep in the huts described above. Sleepers were allocated to huts randomly for each series of trials, and this randomization process occurred nightly. The volunteers entered the huts by 21:00 each night and remained inside the huts until 06:30 the following morning. Each morning, the windows were closed and the exit traps blocked with a piece of cloth to prevent mosquitoes that entered from exiting. The traps were then put in a freezer at −20° C. to kill all the mosquitoes before being emptied for identification. By means of a sucking aspirator the verandas and rooms were visually searched for live mosquitoes and any insects found were collected in labelled cups. A 10-minute search was conducted for each hut (room and veranda traps). The exit traps were emptied into a labelled cup and all the mosquitoes placed in the freezer at −20° C. for about 30 minutes before morphological identification.
(§4) The Mosquito Magnet trap Model-X (MM-X trap made by the firm formerly known as American Biophysics (ABC), USA) is a 12V battery operated counter-flow trap that was used as the repellent dispersing device to evaluate the efficacy of repellent compounds or compositions disclosed herein. Four compounds, carvacrol, cumin alcohol, ethyl cinnamate, and butyl cinnamate, were evaluated in comparison to DEET as a nonproprietary conventional repellent in a first experiment. The chemical compounds were provided in liquid form: carvacrol (98%), butyl cinnamate (98%), ethyl cinnamate (98%), cumin alcohol (97%) and DEET (97%). […]

[2] = tested on: Anopheles gambiae (Giles) ss strain 16CSS female mosquitoes; assay: warm body repellence assay (mosquito landings); conditions: for median repellency (%) at 20 nmol/cm2: Anopheles gambiae, 2 min, 20 nmole per cm^2, read-out: Median Repellency (%)
Description: To test the behavior of female mosquitoes to an essential oil containing OBP binding components, a previously described repellence assay [Kröber et al. (2010). An In Vitro Assay for Testing Mosquito Repellents Employing a Warm Body and Carbon Dioxide as a Behavioral Activator. Journal of the American Mosquito Control Association 26(4) 381-386] was conducted that measures the number of mosquito landings on a warm surface onto which an essential oil containing at least one candidate compound was applied.
To conduct a repellency assay, a selected essential oil or ethanol negative control was applied to a warm body at a dose of about 3.8 μg/cm^2 and allowed to dry for 40 seconds in order to allow evaporation of the solvent before introduction into the test cage with mosquitoes. As positive control for repellence, DEET dissolved in ethanol was applied to the warm body at the same dose. The treated warm body in conjunction with a pulse of carbon dioxide was introduced into the test cage containing fifty Anopheles gambiae (Giles) ss strain 16CSS female mosquitoes that were 4-11 days old and the number of mosquito landings on the warm body occurring within a 2-minute period was counted. Each candidate compound was tested in five different cages (i.e., 250 female mosquitoes) in a randomized design, and the ethanol control and up to four candidate compounds were tested in each cage. Raw data on numbers of landings by mosquitoes were analyzed using a linear mixed model accounting for treatment, experimental day, the individual cage, the number of females per cage and the level of the carbon dioxide pulse in ppm using R (R Development Core Team, 2010) and the packages LME4 (Bates and Maechler, Ime4: Linear mixed-effects models using {S4} classes.{R} package version 0.999375-32, 2009) and NLME (Pinheiro et al, nlme: Linear and Nonlinear Mixed Effects Models, 2010; the R Development Core Team, R: A Language and Environment for Statistical Computing, 2010). Repellent values were calculated from counted landings on treatments versus the overall landings on pooled controls.
To test the behavior of female mosquitoes to a candidate compound identified in Example 5, behavioral assays were made using the identified compounds. The repellent assay was performed as described in Example 3, except that candidate compounds were dissolved in ethanol and tested initially at doses between 1.0 and 5.0 μg/cm^2 (about 5-31.5 nmole/cm^2) and, whenever necessary, at lower and/or higher doses as well. Besides the compounds identified in Example 5, compounds related to these were also tested including ethyl-cinnamate and butyl-cinnamate (Table 4).
To test the behavior of female mosquitoes to various combinations of candidate compounds identified in Example 6, repellence assays were made as in Example 3. These repellent assays were made to compare the effectiveness of the strongest repellent compounds identified in Example 6, including, without limitation, carvacrol, ethyl cinnamate, butyl cinnamate, and cumin alcohol with that of DEET.
The doses tested were 2, 4, 6 10 and 20 nmol/cm^2 for the single compounds. The binary 50:50 mixtures were tested at 2, 6, 10 and 20 nmol/cm^2, with each compound making up half the amount tested, so that, for example, the 2 nmol/cm^2 concentration in column A+B represents 1 nmol/cm^2 of A and 1 nmol/cm^2 of B in a binary mixture. DEET was also tested at 25 nmol (top response) and carvacrol was tested at the additional dose of 2.5 nmol (second from left within its column). As an indication, DEET at 20 nmol/cm^2=3.8 μg/cm^2. Mosquitoes were activated using a puff of CO2 from a gas tank upon introduction of the warm body into the test cage containing 50±5 A. gambiae females and mosquito landings were counted for 2 minutes. Each treatment (dose) was tested using five test cages, i.e. on a total of 250 female A. gambiae. […]

[3] = tested on: Anopheles gambiae s.l.; assay: experimental hut field trial of spatial repellence, Anopheles; conditions: single compound, 1 ml in open vial in MM-X trap, per night
Description: as §1, §2, §3, §4

[4] = tested on: sand fly Lutzomyia longipalpis; assay: warm body repellence assay with sand flies; conditions: 2 minutes, control 48
Description: To test the effects of repellent compounds or compositions disclosed herein on other blood-feeding arthropods, a warm body repellence assay (Krober et. al. (2010). An In Vitro Assay for Testing Mosquito Repellents Employing a Warm Body and Carbon Dioxide as a Behavioral Activator. Journal of the American Mosquito Control Association 26(4): 381-386] was conducted using the sand fly Lutzomyia longipalpis (Diptera: Psychodidae), the principal vector of Leishmania (or leismaniasis) in the Americas.
[…] Fifty L. longipalpis sandflies (male:female ratio 1:1) of 3-7 days old were tested during the scotophase under conditions described for A. gambiae in Example 6. The test cages were lined with filter paper. Reduction in the number of landings by L. longipalpis sand fly females on a warm body treated with different test products compared to the control with solvent (ethanol p.a.) alone was used to evaluate repellence. Tests were conducted in complete darkness using IR LEDs to illuminate the warm body. Landings counted during 2 minutes were normalized by experimental day, cage, and number of females by a mixed linear model before testing for differences.

[5] = 2 nmol (per cm^2, total for mixtures, 50:50)
[6] = 4 nmol (per cm^2, total for mixtures, 50:50)
[7] = 6 nmol (per cm^2, total for mixtures, 50:50)
[8] = 20 nmol (per cm^2, total for mixtures, 50:50)

With CCOC(=O)C=Cc1ccccc1 [(E)-ethyl-cinnamate, ethyl 3-phenylprop-2-enoate] the “spatial repellent effect, induced exophily (in words)” value (shortened to “spatial repellent effect”) [1] was “significantly lower than that of DEET”, the Median repellence % [2, 5] was −18% and the Median repellence % [2, 6] was 18%. The Median repellence % [2, 7] was 35%, the Median repellence % [2, 8] was 83% and the median repellency (%) at 20 nmol/cm2 [2] was 82.8%. For the same compound, the “spatial repellent effect” value [3] was “significantly lower than that of DEET”.
In the case of CCCCOC(=O)C=Cc1ccccc1 [butyl-cinnamate, butyl 3-phenylprop-2-enoate], the Median of landings ([4]; 20 nmol/cm^2) is reported as 49, the Median of landings ([4]; 200 nmol/cm^2) is reported as 40 and the “spatial repellent effect” value [1] is reported as “significantly lower than that of DEET”. It also gave a Median repellence % [2, 5] of −1%, a Median repellence % [2, 6] of 28% and a Median repellence % [2, 7] of 61%. It also gave a Median repellence % ([2]; 10 nmol (per cm^2, total for mixtures, 50:50)) of 68%, a Median repellence % [2, 8] of 89% and a median repellency (%) at 20 nmol/cm2 [2] of 88.7%. The “spatial repellent effect” value [3] was “significantly lower than that of DEET”.
